Assay: Potency code of Table 2 (assay not stated)

Structure (SMILES)	Potency code
Oc1ccc(OCc2ccc(Cl)cc2)cc1-c1cc(C(F)(F)F)n[nH]1 [NUCC-0200573]	+ (>40 +)
COc1ccc(-c2c(-c3ccc(OCc4ccc(Cl)cc4)cc3O)nn(C)c2C(F)(F)F)cc1OC [NUCC-0196311]	+ (>40 +)
[N-]=[N+]=NCCOCCOCCOCC(=O)Nc1ccc(COc2ccc(-c3cc(C(F)(F)F)n[nH]3)c(O)c2-c2cc(C(F)(F)F)cc(C(F)(F)F)c2)cc1 [NUCC-0201199]	+++ (10-30 +++)
CCc1ccc(Oc2c(-c3ccc(O)cc3O)nn(C)c2C(F)(F)F)cc1 [NUCC-0198411]	+++ (10-30 +++)
Cn1nc(C(F)(F)F)cc1-c1ccc(NCc2ccc(Cl)cc2)cn1 [NUCC-0200691]	+ (>40 +)
COc1cccc(-c2c(C(F)(F)F)nn(C)c2-c2ccc(OCc3ccc(Cl)cc3)cc2O)c1 [NUCC-0198310]	+ (>40 +)
Cn1nc(-c2ccc(OCc3ccc(Cl)cc3)c(-c3ccc(Cl)c(C(F)(F)F)c3)c2O)cc1C(F)(F)F [NUCC-0200733]	+ (>40 +)
Cn1nc(C(F)(F)F)cc1-c1ccc(OCc2ccc(Cl)cc2)c(Br)c1O [NUCC-0198407]	+++ (10-30 +++)
Oc1cc(Nc2ccc3c(c2)OCO3)ccc1-c1cc(C(F)(F)F)[nH]n1 [NUCC-0200561]	+ (>40 +)
Cn1nc(C(F)(F)F)c(Br)c1-c1ccc(OCc2ccc(Cl)cc2)cc1C#N [NUCC-0200979]	+ (>40 +)
CCCCCCOc1ccc(-c2cc(C(F)(F)F)n[nH]2)c(O)c1-c1cncc(C(F)(F)F)c1 [NUCC-0201192]	+++ (10-30 +++)
Cc1ccc(C)c(Oc2cn(C)nc2-c2ccc(OCCN3CCCCC3)cc2O)c1 [NUCC-0196299]	+ (>40 +)
Oc1c(-c2cc(C(F)(F)F)n[nH]2)ccc(OCc2ccc(Cl)cc2)c1-c1cncc(C(F)(F)F)c1 [NUCC-0201037]	+++ (10-30 +++)
C#CCC(N=[N+]=[N-])C(=O)NCCCOc1ccc(-c2cc(C(F)(F)F)n(C)n2)c(O)c1-c1cncc(C(F)(F)F)c1 (centres unmarked) [NUCC-0201694]	+ (>40 +)
COc1cccc(-c2c(-c3ccc(OCc4ccc(Cl)cc4)cc3O)n[nH]c2C)c1 [NUCC-0198312]	+ (>40 +)
Oc1cc(OCc2ccc(Cl)cc2)ccc1-c1cc(C(F)(F)F)nc(-c2cc(C(F)(F)F)cc(C(F)(F)F)c2)n1 [NUCC-0200501]	+ (>40 +)
N#Cc1ccc(-c2c(OCc3ccc(Cl)cc3)ccc(-c3cc(C(F)(F)F)[nH]n3)c2O)cc1 [NUCC-0198391]	++++ (<10 ++++)
CCCCCCOc1ccc(-c2cc(C(F)(F)F)nn2C)c(O)c1-c1cncc(C(F)(F)F)c1 [NUCC-0201205]	++++ (<10 ++++)
Cn1nc(C(F)(F)F)cc1-c1ccc(OCc2ccc([N+](=O)[O-])cc2)c(-c2cncc(C(F)(F)F)c2)c1O [NUCC-0201653]	+++ (10-30 +++)
Cn1nc(C(F)(F)F)cc1-c1cnc(O)cn1 [NUCC-0200689]	+ (>40 +)
CCc1ccc(Oc2c(-c3ccc(OCc4ccc(Cl)cc4)cc3OC)nn(C)c2C(F)(F)F)cc1 [NUCC-0196352]	+ (>40 +)
Oc1cc(OCc2ccc(Cl)cc2)ccc1-c1n[nH]c(C(F)(F)F)c1Oc1cccc(F)c1 [NUCC-0196301]	+ (>40 +)
CCCCOc1ccc(-c2cc(C(F)(F)F)n(C)n2)c(O)c1-c1cncc(C#N)c1 [NUCC-0201639]	+ (>40 +)
Cn1cc(-c2ccc(OCc3ccc(Cl)cc3)cn2)c(C(F)(F)F)n1 [NUCC-0200741]	+ (>40 +)

Structure (SMILES)	Potency code
Oc1cc(OCc2ccc(Cl)cc2)ccc1-c1cc(C(F)(F)F)nc(-c2cccc(C(F)(F)F)c2)n1 [NUCC-0200500]	+ (>40 +)
Oc1c(-c2cc(C(F)(F)F)n[nH]2)ccc(OCCc2ccc(Cl)cc2)c1-c1cc(C(F)(F)F)cc(C(F)(F)F)c1 [NUCC-0201024]	++++ (<10 ++++)
COc1cccc(-c2c(C)nn(C)c2-c2ccc(OCc3ccc(Cl)cc3)cc2O)c1 [NUCC-0198313]	+ (>40 +)
CN1CCN(c2ccc(-c3cc(C(F)(F)F)n(C)n3)c(O)c2)CC1 [NUCC-0200568]	+ (>40 +)
Oc1c(-c2cc(C(F)(F)F)[nH]n2)ccc(OCc2ccc(Cl)cc2)c1-c1ccsc1 [NUCC-0201909]	+ (>40 +)
CCCc1c(OCc2ccc(Cl)cc2)ccc(-c2cc(C(F)(F)F)n[nH]2)c1O [NUCC-0200740]	+ (>40 +)
CCc1ccc(Oc2c(-c3ccc(OCc4ccc(Cl)cc4)cc3)nn(C)c2C(F)(F)F)cc1 [NUCC-0196353]	+ (>40 +)
Cc1nn(C)c(-c2ccc(OCc3ccc(Cl)cc3)cc2O)c1-c1ccccc1 [NUCC-0198299]	+ (>40 +)
Nc1ccc(COc2ccc(-c3cc(C(F)(F)F)n[nH]3)c(O)c2-c2cc(C(F)(F)F)cc(C(F)(F)F)c2)cc1 [NUCC-0201201]	++++ (<10 ++++)
Cn1nc(C(F)(F)F)cc1-c1ccc(OCc2ccc(Cl)cc2)cc1C(N)=O [NUCC-0200816]	+ (>40 +)
Cc1[nH]nc(-c2ccc(OCc3ccc(Cl)cc3)cc2O)c1-c1ccccc1 [NUCC-0198298]	+ (>40 +)
Cn1nc(-c2ccc(OCc3ccc(Cl)cc3)c(-c3cncc(C(F)(F)F)c3)c2O)cc1C(F)(F)F [NUCC-0201631]	+ (>40 +)
Oc1cc(OCc2ccncc2)ccc1-c1n[nH]cc1Oc1ccccc1 [NUCC-0176251]	+ (>40 +)
Oc1c(-c2cc(C(F)(F)F)n[nH]2)ccc(OCc2ccc(Cl)cc2)c1-c1ccc2c(c1)OCCO2 [NUCC-0200686]	+ (>40 +)
Oc1cc(OCc2ccc(Cl)cc2)ccc1-c1n[nH]cc1Oc1ccccc1 [NUCC-0176247]	+ (>40 +)
Cn1nc(C(F)(F)F)cc1-c1ccc(OCc2ccc(Cl)cc2)c(-c2ccc(C(N)=O)cc2)c1O [NUCC-0198409]	+ (>40 +)
Cn1cc(-c2cn(C)nc2-c2ccc(OCc3ccc(Cl)cc3)cc2O)cn1 [NUCC-0198362]	+ (>40 +)
Oc1cccc(COc2ccc(Cl)cc2)c1-c1cc(C(F)(F)F)n[nH]1 [NUCC-0200570]	+ (>40 +)
Cn1nc(-c2ccc(OCc3ccc(Cl)cc3)c(-c3cc(C(F)(F)F)cc(C(F)(F)F)c3)c2O)cc1C(F)(F)F [NUCC-0196360]	+ (>40 +)
Cn1nc(-c2ccc(OCc3ccc(Cl)cc3)c(-c3ccc(C(F)(F)F)cc3)c2O)cc1C(F)(F)F [NUCC-0200727]	+ (>40 +)
Cn1nc(-c2ccc(Nc3ccc(F)c(F)c3)cc2O)cc1C(F)(F)F [NUCC-0200560]	+ (>40 +)
Cn1cc(Oc2ccccc2Cl)c(-c2ccc(OCc3ccc(Cl)cc3)cc2O)n1 [NUCC-0196305]	++++ (<10 ++++)
Cn1nc(C(F)(F)F)cc1-c1ccc(OCc2ccc(Cl)cc2)cc1C#N [NUCC-0200812]	+ (>40 +)
C#CCC(N=[N+]=[N-])C(=O)NCCCOc1ccc(-c2cc(C(F)(F)F)nn2C)c(O)c1-c1cncc(C(F)(F)F)c1 (centres unmarked) [NUCC-0201696]	++ (30-40 ++)

Structure (SMILES)	Potency code
CCc1c(-c2ccccc2)c(-c2ccc(OCc3ccc(Cl)cc3)cc2O)nn1C [NUCC-0198303]	+ (>40 +)
Oc1ccccc1-c1cc(C(F)(F)F)n[nH]1 [NUCC-0200574]	+ (>40 +)
CN1CCN(c2ccc(-c3cc(C(F)(F)F)[nH]n3)c(O)c2)CC1 [NUCC-0200567]	+ (>40 +)
CCc1ccc(Oc2c(-c3ccc(Oc4ccc(Cl)cc4)cc3O)n[nH]c2C(F)(F)F)cc1 [NUCC-0200681]	++++ (<10 ++++)
N#Cc1cccc(-c2c(OCc3ccc(Cl)cc3)ccc(-c3cc(C(N)=O)[nH]n3)c2O)c1 [NUCC-0200557]	+ (>40 +)
CCc1ccc(Oc2c(-c3ccc(Nc4ccc(Cl)cc4)cc3O)n[nH]c2C(F)(F)F)cc1 [NUCC-0200680]	+ (>40 +)
Oc1c(-c2cc(C(F)(F)F)[nH]n2)ccc(OCc2ccc(Cl)cc2)c1-c1ccoc1 [NUCC-0198325]	+ (>40 +)
CCCCCCOc1ccc(-c2cc(C(F)(F)F)n(C)n2)c(O)c1-c1cncc(C(F)(F)F)c1 [NUCC-0201210]	+ (>40 +)
NC(=O)c1cc(-c2ccc(Nc3ccc(Cl)cc3)cc2O)n[nH]1 [NUCC-0200677]	+ (>40 +)
CN/N=C(\C)c1cccc(-c2c(OCc3ccc(Cl)cc3)ccc(-c3cc(C(F)(F)F)nn3C)c2O)c1 [NUCC-0198404]	+ (>40 +)
Oc1cc(OCc2ccc(Cl)cc2)ccc1-c1n[nH]cc1Oc1ccc(Cl)cc1 [NUCC-0196303]	+ (>40 +)
Cn1nc(-c2ccc(OCc3ccc(Cl)cc3)cc2O)cc1C(F)(F)F [NUCC-0196314.2]	+ (>40 +)
COc1ccc(COc2ccc(-c3cc(C(F)(F)F)nn3C)c(O)c2-c2cc(C(F)(F)F)cc(C(F)(F)F)c2)cc1 [NUCC-0201042]	+ (>40 +)
COc1cccc(COc2ccc(-c3nn(C)cc3Oc3cc(C)ccc3C)c(O)c2)c1 [NUCC-0196289]	+ (>40 +)
C#CCC(N=[N+]=[N-])C(=O)Nc1ccc(COc2ccc(-c3cc(C(F)(F)F)n(C)n3)c(O)c2-c2cncc(C(F)(F)F)c2)cc1 (centres unmarked) [NUCC-0201699]	+ (>40 +)
Cn1nc(C(F)(F)F)cc1-c1ccc(OCc2ccc(Cl)cc2)c(-c2cncc(C(F)(F)F)c2)c1O [NUCC-0201630]	+ (>40 +)
COc1ccc(COc2ccc(-c3cc(C(F)(F)F)n[nH]3)c(O)c2-c2cc(C(F)(F)F)cc(C(F)(F)F)c2)cc1 [NUCC-0201041]	+ (>40 +)
Cn1nc(-c2ccc(Nc3ccc(Cl)cc3)cc2O)cc1C(F)(F)F [NUCC-0200492]	+++ (10-30 +++)
Cn1nc(-c2ccc(OCCCN)c(-c3ccc(Cl)c(C(F)(F)F)c3)c2O)cc1C(F)(F)F [NUCC-0201643]	+ (>40 +)
Cn1nc(-c2ccc(OCc3ccc(Cl)cc3)c(-c3cc(C(F)(F)F)cc(C(F)(F)F)c3)c2O)cc1C(=O)O [NUCC-0200971]	++++ (<10 ++++)
CCc1ccc(Oc2c(-c3ccc(O)cc3N)nn(C)c2C(F)(F)F)cc1 [NUCC-0200682]	+ (>40 +)
CCc1ccc(Oc2c(-c3ccc(OCCc4ccc(Cl)cc4)cc3O)nn(C)c2C(F)(F)F)cc1 [NUCC-0196356]	+ (>40 +)
Cn1nc(C(F)(F)F)cc1-c1ccc(NC(=O)c2ccc(Cl)cc2)cc1O [NUCC-0200817]	+ (>40 +)
